Data reported in patent US20240252474A1, “METHODS AND COMPOSITIONS COMPRISING A CARDIO-TOLERATED HDAC INHIBITOR” (HUYABIO International, LLC, priority 2023, published 2024).
“And” between values parts separate entries of the source, which are not always exact repeats. Equal values may be shown once. Read-outs that look alike come from different tables or passages of the source.

Key:
[1] = Non-compartmental PK analysis of HBI-8000 plasma concentrations; type: in vivo, human; conditions: for AUC0-7/D / AUC0-24/D / Cmax/D / CPre/D: dose-normalized; for AUC from 0 to 7 h post-dose: read-out: AUC0-7; for AUC(0-t): read-out: AUC0-24
Text: Statistical analyses of safety, tolerability, and anti-tumor activity were primarily descriptive in nature. Toxicities were tabulated by type and grade. The safety population included all patients who received ≥1 dose of HBI-8000 and nivolumab. Continuous variables were summarized using descriptive statistics and categorical variables were summarized with number and percentage at each category. Pharmacokinetic parameters were derived using noncompartmental methods with Phoenix® WinNonlin® Version 6.4 (Certara, L. P., Princeton, NJ, USA).
(§1) Non-compartmental PK analysis for HBI-8000 was conducted in Phase 1b using serial plasma concentration data collected up to 24 hours post-dose for the first (Cycle 1 Day 1; C1D1) dose and up to 7 hours post-dose for the ninth (C2D1) dose of HBI-8000. In conjunction with PK, Holter monitors were used to record 12-lead continuous digital ECGs (under controlled conditions to minimize digital noise) on a baseline day (within 1-7 days prior to C1D1) and on C1D1 (Phase 1b only). Triplicate 10-second ECGs were extracted from the Holter flashcard at matched time-points on the baseline day and on C1D1 up to 4 hours post-dose and the PR, QRS, RR, and QT intervals were analyzed by a Central ECG Laboratory. Meal-times (breakfast) were standardized across both days and occurred after or ≥1 hour before the scheduled extraction times for triplicate ECGs. The measured QT data were corrected for heart rate using Fridericia (QTcF).

[2] = system: electrocardiogram (ECG) QT interval; test: 12-lead Holter ECG (QTcF, heart rate) and concentration-QT modeling; type: in vivo; conditions: for median ΔQTcF across time points: C1D1, up to 4 hours post dose
Description: In conjunction with the pharmacokinetic analysis, Holter monitors were used to record 12-lead continuous digital ECGs (under controlled conditions to minimize digital noise) on a baseline day (within 1-7 days prior to C1D1) and on C1D1 (Phase 1b only). Triplicate 10-second ECGs were extracted from the Holter flashcard at matched time-points on the baseline day and on C1D1 at pre-dose (0.5 hr prior to breakfast), and up to 4 hours post-dose. The PR, QRS, RR, and QT intervals were analyzed by a central ECG laboratory. Mealtimes (breakfast) were standardized across both days. The measured QT data were corrected for heart rate using the Fridericia correction (QTcF). • QTcF was calculated using the formula: Fridericia: QTcFri=QT/(RR)^1/3 (Fridericia L S. Die systolendauer im elektrokardiogramm bei normalenmenschen und bei herzkranken. Acta Med Scand. 1920; 53:469-486).
as §1

[3] = system: advanced solid tumors, including melanoma, RCC (renal cell carcinoma), and NSCLC (non-small cell lung cancer); test: Tumor response by RECIST v.1.1; type: in vivo, human
Text: The decision to escalate the dose was based on the conventional 3+3 design and observed incidences of dose-limiting toxicities (DLTs). Each treatment cycle was defined as 28 days. To be evaluable for DLT, a subject must have developed DLT, or received the minimum 75% of the planned HBI-8000 dose within the 28-day DLT evaluation period in the absence of treatment delays due to toxicities. Subjects experiencing DLT within the first two weeks after having received 100% of assigned dose of HBI-8000 are also evaluable for DLT. Unacceptable toxicities were defined as grade 3 or higher non-hematologic and hematologic toxicities with clinical complications. Unacceptable toxicities observed over the first 28 days following HBI-8000 administration were considered as DLTs. The RP2D was identified as the highest dose at which the DLT incidence was less than 33.3%. HBI-8000 administration continued until disease progression or unacceptable toxicity was observed. The efficacy of the combination was further evaluated in an expanded cohort of selected patient populations at RP2D based on an objective response rate according to Response Evaluation Criteria in Solid Tumors (RECIST) version 1.1 criteria, progression-free survival, and duration of responses.
Tumor assessments were performed every 8 weeks until treatment discontinuation, then every 12 (±1) weeks in subjects in whom disease progression has not yet been observed, and followed the guidelines specified by RECIST v.1.1 and immune-related Response Evaluation Criteria In Solid Tumors (iRECIST).

[4] = 20 mg, n = 2, individual values
[5] = C1D1, 20 mg, n = 3, geometric mean
[6] = C1D1, 30 mg, n = 7, geometric mean
[7] = C1D1, 40 mg, n = 7, geometric mean
[8] = C2D1, 20 mg, n = 2, individual values
[9] = C2D1, 30 mg, n = 3, geometric mean
[10] = C2D1, 40 mg, n = 4, geometric mean
[11] = human, plasma, oral, 20 mg, C1D1, 20 mg, n = 3, geometric mean
[12] = human, plasma, oral, 30 mg, C1D1, 30 mg, n = 7, geometric mean
[13] = HBI-8000 + nivolumab, 3 NSCLC patients
[14] = HBI-8000 + nivolumab, 5 melanoma patients
[15] = HBI-8000 + nivolumab, 7 RCC patients

Nc1cc(F)ccc1NC(=O)c1ccc(CNC(=O)/C=C/c2cccnc2)cc1 [HBI-8000, N-(2-amino-4-fluorophenyl)-4-[[[(2E)-1-oxo-3-(3-pyridinyl)-2-propen-1-yl]amino]methyl]benzamide]
median plasma concentration at 4 hours, lower than Cmax by ([1]; 20 mg dose): 17%
AUC0-7 Ratio (C2D1/C1D1) [1, 4]: 0.69 and 1.99
Cmax Ratio (C2D1/C1D1) [1, 4]: 1.06 and 1.80
median plasma concentration at 4 hours, lower than Cmax by ([1]; 30 mg dose): 19%
AUC0-7 Ratio (C2D1/C1D1) ([1]; 30 mg, n = 3, geometric mean): 1.37
Cmax Ratio (C2D1/C1D1) ([1]; 30 mg, n = 3, geometric mean): 1.08
AUC0-7 Ratio (C2D1/C1D1) ([1]; 40 mg, n = 3, geometric mean): 1.36
Cmax Ratio (C2D1/C1D1) ([1]; 40 mg, n = 4, geometric mean): 1.18
median plasma concentration at 4 hours, lower than Cmax by ([1]; 40-mg dose): 15%
Accumulation, first versus ninth dose ([1]; BIW dosing, C1D1 vs C2D1): No significant accumulation
Cmax ([1]; C1D1, 20 mg oral, n = 3, geometric mean): 104.9 ng/mL
AUC0-7/D [1, 5]: 19.2 ng·h/mL/mg
AUC0-24/D [1, 5]: 79.5 ng·h/mL/mg
Cmax/D [1, 5]: 5.24 ng/mL/mg
Cmax ([1]; C1D1, 30 mg oral, n = 7, geometric mean): 117.6 ng/mL
AUC0-7/D [1, 6]: 11.4 ng·h/mL/mg
AUC0-24/D [1, 6]: 57.8 ng·h/mL/mg
Cmax/D [1, 6]: 3.92 ng/mL/mg
Cmax ([1]; C1D1, 40 mg oral, n = 7, geometric mean): 259.3 ng/mL
AUC0-7/D ([1]; C1D1, 40 mg, n = 6, geometric mean): 24.3 ng·h/mL/mg
AUC0-24/D [1, 7]: 92.2 ng·h/mL/mg
Cmax/D [1, 7]: 6.49 ng/mL/mg
Cmax ([1]; C2D1, 20 mg BIW, n = 2, individual values): 83.1 ng/mL and 182 ng/mL
AUC0-7 [1, 8]: 250 ng·h/mL and 728 ng·h/mL
CPre (pre-dose trough concentration) [1, 8]: 4.76 ng/mL and 4.79 ng/mL
Tmax [1, 8]: 3.0 h
AUC0-7/D [1, 8]: 12.5 ng·h/mL/mg and 36.4 ng·h/mL/mg
CPre/D [1, 8]: 0.238 ng/mL/mg and 0.240 ng/mL/mg
Cmax/D [1, 8]: 4.16 ng/mL/mg and 9.10 ng/mL/mg
CPre (pre-dose trough concentration) [1, 9]: 16.1 ng/mL
AUC0-7/D [1, 9]: 13.1 ng·h/mL/mg
CPre/D [1, 9]: 0.536 ng/mL/mg
Cmax/D [1, 9]: 3.76 ng/mL/mg
CPre (pre-dose trough concentration) [1, 10]: 14.2 ng/mL
AUC0-7/D [1, 10]: 23.2 ng·h/mL/mg
CPre/D [1, 10]: 0.356 ng/mL/mg
Cmax/D [1, 10]: 5.73 ng/mL/mg
AUC from 0 to 7 h post-dose [1, 11]: 384 ng·h/mL
AUC(0-t) [1, 11]: 1590 ng·h/mL
Tmax ([1]; human, plasma, oral, 20 mg, C1D1, 20 mg, n = 3, median, read-out: tmax): 6.6 h
AUC from 0 to 7 h post-dose [1, 12]: 342 ng·h/mL
AUC(0-t) [1, 12]: 1730 ng·h/mL
Tmax ([1]; human, plasma, oral, 30 mg, C1D1, 30 mg, n = 7, median, read-out: tmax): 6.5 h
Cmax ([1]; human, plasma, oral, 30 mg, C2D1, 30 mg BIW, n = 3, geometric mean, read-out: Cmax): 113 ng/mL
AUC from 0 to 7 h post-dose ([1]; human, plasma, oral, 30 mg, C2D1, 30 mg, n = 3, geometric mean): 392 ng·h/mL
Tmax ([1]; human, plasma, oral, 30 mg, C2D1, 30 mg, n = 3, median, read-out: tmax): 6.7 h
AUC from 0 to 7 h post-dose ([1]; human, plasma, oral, 40 mg, C1D1, 40 mg, n = 6, geometric mean): 973 ng·h/mL
AUC(0-t) ([1]; human, plasma, oral, 40 mg, C1D1, 40 mg, n = 7, geometric mean): 3690 ng·h/mL
Tmax ([1]; human, plasma, oral, 40 mg, C1D1, 40 mg, n = 7, median, read-out: tmax): 4.8 h
Cmax ([1]; human, plasma, oral, 40 mg, C2D1, 40 mg BIW, n = 4, geometric mean, read-out: Cmax): 229 ng/mL
AUC from 0 to 7 h post-dose ([1]; human, plasma, oral, 40 mg, C2D1, 40 mg, n = 4, geometric mean): 929 ng·h/mL
Tmax ([1]; human, plasma, oral, 40 mg, C2D1, 40 mg, n = 4, median, read-out: tmax): 6.8 h
Tmax ([1]; human, plasma, oral, 40 mg, range across 20, 30 and 40 mg BIW dose cohorts, post dose, read-out: median time to peak plasma concentration (tmax)): 5 to 7 h
Cmax ([1]; human, plasma, po, 20 mg, C1D1, 20 mg oral, n = 3, geometric mean, read-out: Cmax): 105 ng/mL
Cmax ([1]; human, plasma, po, 30 mg, C1D1, 30 mg oral, n = 7, geometric mean, read-out: Cmax): 118 ng/mL
Cmax ([1]; human, plasma, po, 40 mg, C1D1, 40 mg oral, n = 7, geometric mean, read-out: Cmax): 259 ng/mL
median ΔQTcF across time points ([2]; 30 mg dose): 0 to −1.5 ms
highest median decrease in QTcF ([2]; 40 mg dose, 4 hours post dose): -11.5 ms
median ΔQTcF across time points ([2]; 40 mg dose): −3.0 to −11.5 ms
mean upper 90% confidence limits of model-predicted ΔQTcF ([2]; 20, 30 and 40 mg doses, threshold 10 ms): −1.1 to −2.8 ms
QTcF values ([2]; all patients, 20-40 mg): ≤ 450 ms
ΔQTcF values ([2]; all patients, 20-40 mg): ≤ 30 ms
Effect on QTcF (conclusion) ([2]; at the doses and regimen administered): did not prolong QTcF
change from baseline ventricular heart rate ([2]; single dose 20, 30 or 40 mg on C1D1, 0 to 4 hour): remained essentially stable
NSCLC, PR [3, 13]: 1 patients
NSCLC, stable disease [3, 13]: 2 patients
Melanoma, complete response (CR) [3, 14]: 1 patients
Melanoma, partial responses (PR) [3, 14]: 4 patients
Melanoma patients who responded ([3]; HBI-8000 + nivolumab, 5 melanoma patients, RECIST v.1.1): 5 patients
RCC, PR [3, 15]: 2 patients
RCC, progressive disease [3, 15]: 4 patients
RCC, stable disease [3, 15]: 1 patients
earliest objective response, time of treatment ([3]; HBI-8000 + nivolumab, first scheduled tumor assessment, end of Cycle 2): 8 weeks
longest time to response after treatment initiation ([3]; one patient, nivolumab and HBI-8000 ceased after 16 months): 32 months
